In patent US20220257635A1, “INJECTABLE NUTRITIONAL SUPPLEMENT” (CHEMVET AUSTRALIA PTY LTD, priority 2019, published 2022):

Test: Stability storage of the Comparative Example 1 formulation at 5° C. and 40° C. (75% RH), vitamin B12 analysed
Assay type: physicochemical
Conditions: in formulation of Table 2; for Vitamin B12 T = 1 month (mg/mL) 5° C.: 1 month at 5° C.; for Vitamin B12 T = 1 month (mg/mL) 40° C.: 1 month at 40° C. (75% RH); for Vitamin B12 T = 0 (mg/mL) 5° C.: T = 0, 5° C. sample; for Vitamin B12 T = 0 (mg/mL) 40° C.: T = 0, 40° C. (75% RH) sample
Method: To the formulation of Table 1, water-soluble disodium Copper EDTA and disodium Zinc EDTA, were successfully added at the rate of 107 g/L and 285 g/L respectively and then topped up with water to the required volume.
This formulation was sent to Chemical Analysis, and analysed at 0 time and placed on stability storage at 5° C. and 40° C. (75% RH).

| Substance | Vitamin B12 T = 1 month (mg/mL) 5° C. [mg/mL] | Vitamin B12 T = 1 month (mg/mL) 40° C. [mg/mL] | Vitamin B12 T = 0 (mg/mL) 5° C. [mg/mL] | Vitamin B12 T = 0 (mg/mL) 40° C. [mg/mL] |
| --- | --- | --- | --- | --- |
| Cyanocobalamin | 0.23 | 0.14 | 0.24 | 0.24 |
| Hydroxocobalamin Acetate | 0.26 | 0.03 | 0.49 | 0.49 |
